In data set [1] the target is Ba/F3 cells overexpressing EGFR Del19/T790M/C797S (Homo sapiens, UniProt P00533, T790M/C797S, cells depend on it, form not given). The experiment in a line: Cell proliferation inhibitory activity assay, Ba/F3 EGFR Del19/T790M/C797S. The data set is classed as cell-based. To be noted: cell proliferation inhibition, 72 hours, luminescence; read-out: Ba/F3 cells overexpressing different EGFR mutations IC50 (nM) Del19/T790M/C797S. In outline:
(§1)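 Ba/F3 cells overexpressing the indicated EGFR mutants, grown in RPMI 1640 with 10% FBS, were treated with compound at 37 °C, 5% CO2. Cell survival inhibition rate plotted against log compound concentration; IC50 from four-parameter sigmoidal fit.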

Data set [2] addresses Ba/F3 (EGFR L858R/T790M/C797S) (Homo sapiens, UniProt P00533, T790M/C797S/L858R, cells depend on it). The experiment in a line: Cell proliferation inhibitory activity assay, Ba/F3 EGFR L858R/T790M/C797S. The data set is classed as cell-based. To be noted: cell proliferation inhibition, 72 hours, luminescence; read-out: Ba/F3 cells overexpressing different EGFR mutations IC50 (nM) L858R/T790M/C797S. In outline:
as §1

Data set [3] deals with Ba/F3 (EGFR Del19/C797S) (Homo sapiens, UniProt P00533, C797S, cells depend on it, form not given). As to the kind of experiment: Cell proliferation inhibitory activity assay, Ba/F3 EGFR Del19/C797S. The data set is classed as cell-based. To be noted: cell proliferation inhibition, 72 hours, luminescence; read-out: Ba/F3 cells overexpressing different EGFR mutations IC50 (nM) Del19/C797S. In short, it runs like this: as §1
Chain of Ba/F3 (EGFR Del19/C797S) (P00533 with tags, fused parts or gaps DEL746-750/C797S, form open): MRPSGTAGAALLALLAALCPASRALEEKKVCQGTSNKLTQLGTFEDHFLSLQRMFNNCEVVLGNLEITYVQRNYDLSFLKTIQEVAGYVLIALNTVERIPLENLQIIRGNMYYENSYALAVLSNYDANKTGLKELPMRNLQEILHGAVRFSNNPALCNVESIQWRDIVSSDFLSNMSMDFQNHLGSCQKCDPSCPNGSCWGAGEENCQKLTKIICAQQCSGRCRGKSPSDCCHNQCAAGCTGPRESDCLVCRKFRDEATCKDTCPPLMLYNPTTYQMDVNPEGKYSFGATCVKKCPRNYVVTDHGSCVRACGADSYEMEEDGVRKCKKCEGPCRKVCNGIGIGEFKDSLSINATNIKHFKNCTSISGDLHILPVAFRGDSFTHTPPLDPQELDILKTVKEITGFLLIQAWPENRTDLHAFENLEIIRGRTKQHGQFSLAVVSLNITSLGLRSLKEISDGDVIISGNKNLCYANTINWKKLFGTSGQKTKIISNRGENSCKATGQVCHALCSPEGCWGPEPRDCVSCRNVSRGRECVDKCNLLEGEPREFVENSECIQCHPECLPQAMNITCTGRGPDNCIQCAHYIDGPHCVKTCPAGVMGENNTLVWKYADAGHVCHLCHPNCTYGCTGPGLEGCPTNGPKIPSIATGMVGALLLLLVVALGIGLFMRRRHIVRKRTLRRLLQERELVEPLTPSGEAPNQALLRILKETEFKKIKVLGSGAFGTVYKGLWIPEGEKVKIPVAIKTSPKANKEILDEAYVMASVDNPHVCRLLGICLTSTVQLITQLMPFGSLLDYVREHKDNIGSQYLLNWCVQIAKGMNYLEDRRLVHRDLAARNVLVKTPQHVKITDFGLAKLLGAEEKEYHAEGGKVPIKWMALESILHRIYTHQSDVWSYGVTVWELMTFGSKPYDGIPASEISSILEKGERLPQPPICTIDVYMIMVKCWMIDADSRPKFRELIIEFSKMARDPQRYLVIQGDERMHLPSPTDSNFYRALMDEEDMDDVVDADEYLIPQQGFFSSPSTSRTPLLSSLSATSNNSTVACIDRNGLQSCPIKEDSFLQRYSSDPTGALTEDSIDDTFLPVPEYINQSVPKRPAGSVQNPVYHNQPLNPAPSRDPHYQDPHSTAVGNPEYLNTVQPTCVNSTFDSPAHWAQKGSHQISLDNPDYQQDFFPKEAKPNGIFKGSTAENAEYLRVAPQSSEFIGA

Data set [4] concerns the target Ba/F3 (EGFR L858R/C797S) (Homo sapiens, UniProt P00533, C797S/L858R, cells depend on it). The experiment in a line: Cell proliferation inhibitory activity assay, Ba/F3 EGFR L858R/C797S. To be noted: cell proliferation inhibition, 72 hours, luminescence; read-out: Ba/F3 cells overexpressing different EGFR mutations IC50 (nM) L858R/C797S. The class given is cell-based. In short, it runs like this: as §1

Data set [5] has as its system A431 cell carrying EGFR WT. As to the kind of experiment: Cell proliferation inhibitory activity assay, A431. The data set is classed as cell-based. To be noted: Homo sapiens, A-431; cell proliferation inhibition, 72 hours, luminescence. In short, it runs like this: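 A431 cells, an adherent human line carrying wild-type EGFR, were grown in DMEM supplemented with 10% FBS and 1% PS. Log-phase cells were trypsinized, counted and plated into 96-well plates at a set density, then left overnight at 37° C. and 5% CO2 to attach. IC50 values came from fitting inhibition rate against log compound concentration.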

Data set [6] is described as follows: Metabolic stability of liver microsomes, human. The data set is classed as in vitro ADME. Conditions: NADPH, 0-45 min, read-out: CLint(μL/min/mg protein) Human. The procedure: (§2) The liver microsomes of human, rat, mouse and dog were used to study the metabolic stability of the compounds. The specific experimental steps are as follows: • (1) Add 40 μL MgCl2 and 306 μL PBS to each well of a 96-well plate, and then add 4 μL compound, with a final DMSO concentration of ≤0.5%. Set up a blank well without compound; • (2) Add 10 μL of 20 mg/mL liver microsomes to each well, incubate at 37° C. for 10 min; • (3) Add 40 μL NADPH working solution to each well to start the reaction, and set up a control well without NADPH; • (4) At 0, 5, 15, and 45 min after the start of the reaction, 50 μL of sample was taken out, the termination solution was added, and the mixture was shaken for 5 min. • (5) The samples were then centrifuged at 3,220 g for 10 min, and 50 μL of the supernatant was removed and was added 200 μL water for dilution and analysis by LC-MS/MS.
(§3) The in vitro intrinsic clearance (in vitro CLint, in μL/min/mg) was calculated from the in vitro half-life t1/2 (minutes) using the following equation (mean of replicates):
(§4) In vitro clearance rate=0.693/in vitro half-life t1/2×[incubation volume (μL)/(protein amount (mg)]

Data set [7] is described as follows: Metabolic stability of liver microsomes, rat. The class given is in vitro ADME. Conditions: NADPH, 0-45 min, read-out: CLint(μL/min/mg protein) Rat. How it is done: as §2, §3, §4
(Microsomes from liver hold many membrane-bound enzymes, among them those of drug oxidation.)

The nature of data set [8]: Metabolic stability of liver microsomes, mouse. The class given is in vitro ADME. Conditions: NADPH, 0-45 min, read-out: CLint(μL/min/mg protein) Mouse. How it is done: as §2, §3, §4
The nature of data set [9]: Metabolic stability of liver microsomes, dog. The class given is in vitro ADME. To be noted: NADPH, 0-45 min, read-out: CLint(μL/min/mg protein) Dog. How it is done:
as §2, §3, §4

Chain of Ba/F3 (EGFR L858R/C797S) (P00533 whole entry C797S/L858R): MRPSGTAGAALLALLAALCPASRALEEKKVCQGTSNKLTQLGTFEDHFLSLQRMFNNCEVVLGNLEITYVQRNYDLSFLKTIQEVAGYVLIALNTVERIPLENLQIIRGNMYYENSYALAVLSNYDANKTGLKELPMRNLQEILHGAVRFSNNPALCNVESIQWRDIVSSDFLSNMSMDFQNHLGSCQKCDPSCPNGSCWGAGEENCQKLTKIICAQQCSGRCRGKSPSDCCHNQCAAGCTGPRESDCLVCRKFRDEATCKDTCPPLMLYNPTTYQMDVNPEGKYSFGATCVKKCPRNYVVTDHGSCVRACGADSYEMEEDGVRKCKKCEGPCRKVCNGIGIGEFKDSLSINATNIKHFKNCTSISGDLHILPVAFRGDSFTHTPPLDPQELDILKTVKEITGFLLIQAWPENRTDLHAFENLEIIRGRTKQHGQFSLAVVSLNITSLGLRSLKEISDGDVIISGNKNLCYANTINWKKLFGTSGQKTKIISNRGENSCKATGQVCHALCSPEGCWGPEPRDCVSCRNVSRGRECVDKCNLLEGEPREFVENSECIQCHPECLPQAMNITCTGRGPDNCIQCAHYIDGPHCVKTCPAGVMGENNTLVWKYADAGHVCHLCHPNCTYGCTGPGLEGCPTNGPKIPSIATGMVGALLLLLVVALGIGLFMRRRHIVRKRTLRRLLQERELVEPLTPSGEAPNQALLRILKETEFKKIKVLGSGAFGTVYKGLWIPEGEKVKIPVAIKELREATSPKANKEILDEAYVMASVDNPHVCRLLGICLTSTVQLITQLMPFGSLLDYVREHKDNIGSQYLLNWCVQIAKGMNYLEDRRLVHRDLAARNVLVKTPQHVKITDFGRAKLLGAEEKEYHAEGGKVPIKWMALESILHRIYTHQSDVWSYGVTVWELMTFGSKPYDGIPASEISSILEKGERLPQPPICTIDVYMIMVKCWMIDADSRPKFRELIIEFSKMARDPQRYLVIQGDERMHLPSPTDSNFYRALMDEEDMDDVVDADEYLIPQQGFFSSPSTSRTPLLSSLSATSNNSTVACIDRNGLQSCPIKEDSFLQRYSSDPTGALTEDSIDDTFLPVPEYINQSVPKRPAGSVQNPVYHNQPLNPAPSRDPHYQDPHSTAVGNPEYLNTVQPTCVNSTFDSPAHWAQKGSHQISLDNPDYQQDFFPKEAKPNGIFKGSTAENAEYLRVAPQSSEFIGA
Chain of Ba/F3 cells overexpressing EGFR Del19/T790M/C797S (P00533 with tags, fused parts or gaps DEL746-750/T790M/C797S, form open): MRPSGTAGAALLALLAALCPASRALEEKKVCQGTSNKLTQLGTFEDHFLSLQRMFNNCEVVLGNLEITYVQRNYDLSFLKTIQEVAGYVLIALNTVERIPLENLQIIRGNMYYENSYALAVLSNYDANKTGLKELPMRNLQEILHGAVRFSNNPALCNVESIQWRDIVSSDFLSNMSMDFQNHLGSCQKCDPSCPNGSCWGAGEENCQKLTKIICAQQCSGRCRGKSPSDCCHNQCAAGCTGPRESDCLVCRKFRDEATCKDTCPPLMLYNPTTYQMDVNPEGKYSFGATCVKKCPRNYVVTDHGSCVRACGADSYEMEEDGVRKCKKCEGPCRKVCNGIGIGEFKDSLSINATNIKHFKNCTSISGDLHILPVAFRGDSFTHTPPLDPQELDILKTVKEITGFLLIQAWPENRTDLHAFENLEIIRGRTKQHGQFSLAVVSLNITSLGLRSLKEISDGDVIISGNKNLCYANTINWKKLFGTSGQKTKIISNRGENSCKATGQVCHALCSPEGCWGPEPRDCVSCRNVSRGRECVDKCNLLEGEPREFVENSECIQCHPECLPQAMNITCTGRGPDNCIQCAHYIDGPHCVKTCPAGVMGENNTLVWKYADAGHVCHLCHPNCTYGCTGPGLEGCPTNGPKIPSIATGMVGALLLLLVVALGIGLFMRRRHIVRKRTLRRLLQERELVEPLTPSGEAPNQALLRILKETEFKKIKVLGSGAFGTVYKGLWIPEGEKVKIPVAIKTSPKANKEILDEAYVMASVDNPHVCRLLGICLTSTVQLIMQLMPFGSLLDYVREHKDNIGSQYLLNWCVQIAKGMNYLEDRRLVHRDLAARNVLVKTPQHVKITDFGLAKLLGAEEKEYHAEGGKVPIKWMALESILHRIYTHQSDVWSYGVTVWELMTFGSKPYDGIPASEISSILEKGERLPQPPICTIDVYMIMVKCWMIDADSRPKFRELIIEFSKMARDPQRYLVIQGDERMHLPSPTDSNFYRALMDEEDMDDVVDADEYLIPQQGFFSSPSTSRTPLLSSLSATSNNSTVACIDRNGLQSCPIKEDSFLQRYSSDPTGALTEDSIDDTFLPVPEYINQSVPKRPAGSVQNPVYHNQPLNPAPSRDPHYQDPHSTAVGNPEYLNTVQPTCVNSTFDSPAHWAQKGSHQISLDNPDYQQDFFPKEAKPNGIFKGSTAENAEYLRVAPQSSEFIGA
Chain of Ba/F3 (EGFR L858R/T790M/C797S) (P00533 whole entry T790M/C797S/L858R): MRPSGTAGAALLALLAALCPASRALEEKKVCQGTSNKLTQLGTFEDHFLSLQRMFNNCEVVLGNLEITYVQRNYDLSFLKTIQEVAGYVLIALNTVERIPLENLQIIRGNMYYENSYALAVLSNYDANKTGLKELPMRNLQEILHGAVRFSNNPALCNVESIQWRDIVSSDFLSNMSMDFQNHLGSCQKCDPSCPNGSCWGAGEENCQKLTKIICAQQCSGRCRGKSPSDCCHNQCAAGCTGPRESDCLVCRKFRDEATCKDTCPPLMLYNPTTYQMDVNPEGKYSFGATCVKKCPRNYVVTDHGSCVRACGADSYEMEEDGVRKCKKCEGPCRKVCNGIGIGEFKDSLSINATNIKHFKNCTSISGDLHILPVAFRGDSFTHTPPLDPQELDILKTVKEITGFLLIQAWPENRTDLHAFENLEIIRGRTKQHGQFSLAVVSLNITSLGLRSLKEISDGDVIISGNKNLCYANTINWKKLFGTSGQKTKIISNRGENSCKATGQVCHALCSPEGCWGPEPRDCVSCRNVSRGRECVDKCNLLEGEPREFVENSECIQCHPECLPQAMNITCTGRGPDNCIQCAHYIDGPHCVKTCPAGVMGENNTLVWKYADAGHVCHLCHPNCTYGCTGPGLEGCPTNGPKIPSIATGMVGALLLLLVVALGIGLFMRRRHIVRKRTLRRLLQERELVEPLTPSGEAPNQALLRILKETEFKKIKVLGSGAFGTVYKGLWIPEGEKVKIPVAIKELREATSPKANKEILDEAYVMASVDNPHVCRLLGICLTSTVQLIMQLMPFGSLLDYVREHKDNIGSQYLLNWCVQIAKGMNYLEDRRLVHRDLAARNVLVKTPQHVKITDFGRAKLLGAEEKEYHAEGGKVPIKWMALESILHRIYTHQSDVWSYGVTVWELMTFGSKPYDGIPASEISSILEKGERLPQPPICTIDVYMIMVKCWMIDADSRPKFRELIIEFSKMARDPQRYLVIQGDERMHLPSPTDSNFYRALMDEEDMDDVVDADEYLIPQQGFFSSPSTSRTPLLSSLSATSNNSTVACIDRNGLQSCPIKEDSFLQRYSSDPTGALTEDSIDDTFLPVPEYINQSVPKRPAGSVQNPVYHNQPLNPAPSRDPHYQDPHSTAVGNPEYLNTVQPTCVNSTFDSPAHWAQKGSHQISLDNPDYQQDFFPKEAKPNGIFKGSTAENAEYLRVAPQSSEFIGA

The IC50 is the midpoint of a concentration-inhibition curve. Low values mean greater potency in that assay, high ones weaker potency in that assay. Regarding `Cc1cc2cc(n1)-c1cnccc1OCCC[C@@H](C)Cn1c(nc3ccc(N4CCC5(CCN(C)CC5)CC4)cc31)NC2=O` [Example 3, (R)-2^6,7-dimethyl-5^6-(9-methyl-3,9-diazaspiro[5.5]undecan-3-yl)-5^1H-11-oxa-4-aza-5(2,1)-benzo[d]imidazola-1(3,4)2(2,4)-dipyridinacycloundecaphan-3-one], the GI50 came to 0.49 nM in data set [1], 0.71 nM in data set [2], 0.07 nM in data set [3] and 0.44 nM in data set [4]. In [5], this compound showed an IC50 of 759 nM. Further, the microsomal CLint stood at 6.6 µL/min/mg in data set [6], 8 µL/min/mg in data set [7], 23.1 µL/min/mg in data set [8] and 7.9 µL/min/mg in data set [9].

As to `Cc1cc2cc(n1)-c1cnccc1OCCC[C@@H](C)Cn1c(nc3cc(F)c(N4CCC5(CCN(C)CC5)CC4)cc31)NC2=O` [Example 5, (R)-5^5-fluoro-2^6,7-dimethyl-5^6-(9-methyl-3,9-diazaspiro[5.5]undecan-3-yl)-5^1H-11-oxa-4-aza-5(2,1)-benzo[d]imidazola-1(3,4),2(2,4)-dipyridinacycloundecaphan-3-one], the GI50 in [1] is 0.61 nM; in data set [2], 0.98 nM; in [3], 0.19 nM; in data set [4], 0.88 nM. The IC50 in data set [5] came to 331 nM. In addition, the microsomal CLint in data set [6] amounted to 9.1 µL/min/mg; in data set [7], 8.9 µL/min/mg; in data set [8], 22.8 µL/min/mg; in data set [9] it was 2.2 µL/min/mg.

With `Cc1cc2cc(n1)-c1cnccc1OCCCCCn1c(nc3cc(C)c(N4CCC5(CCN(C)CC5)CC4)cc31)NC2=O` [Example 13, 2^6,5^5-dimethyl-5^6-(9-methyl-3,9-diazaspiro[5.5]undecan-3-yl)-5^1H-11-oxa-4-aza-5(2,1)-benzo[d]imidazola-1(3,4),2(2,4)-dipyridinacycloundecaphan-3-one], the GI50 in data set [1] amounted to 0.96 nM; in data set [2] it was 2 nM; in data set [3] it was 0.2 nM; in data set [4], 1.3 nM. Moreover, the IC50 in data set [5] is above 3330 nM. The microsomal CLint in data set [6] stood at 4 µL/min/mg; in data set [7], 7 µL/min/mg; in data set [8], 6.2 µL/min/mg; in data set [9] it was 4.2 µL/min/mg.

As to `Cc1cc2cc(n1)-c1cnccc1OCCCCCn1c(nc3ccc(N4CCC5(CCN(CC(C)(C)F)CC5)CC4)cc31)NC2=O` [Example 78, 5^6-(9-(2-fluoro-2-methylpropyl)-3,9-diazaspiro [5.5]undecan-3-yl)-2^6-methyl-5^1H-11-oxa-4-aza-5(2,1)-benzo[d] imidazola-1(3,4),2(2,4)-dipyridinacyclo-undecaphan-3-one], the GI50 in data set [1] came out at 5.9 nM; in data set [2] it was 12 nM; in [3], 3.3 nM; in data set [4], 21 nM. Also, the half-inhibitory concentration (IC50) in data set [5] is above 3330 nM. In addition, the microsomal CLint in data set [6] turned out to be 4.3 µL/min/mg; in data set [7], 12.2 µL/min/mg; in data set [8], 69.5 µL/min/mg; in data set [9] it was 22 µL/min/mg.

Values taken from patent US20250223300A1, “MACROCYCLIC COMPOUND AND PHARMACEUTICAL COMPOSITION AND USE THEREOF” (BETTA PHARMACEUTICALS CO., LTD, priority 2022, published 2025).
